Patent publication US20220128542A1, “TREATMENT EFFICIENCY EVALUATION” (TX MEDIC AB, priority 2019, published 2022)

Test system: brain of rats subjected to closed-head diffuse severe TBI (sTBI)
Test: HPLC of energy metabolites, antioxidants and oxidative/nitrosative stress biomarkers in brain, dose study after sTBI (Example 3)
Type: in vivo, rat
Settings: for NAD^+/NADH ratio in brain homogenate: calculated, adimensional, rats 7 days post-sTBI
Text: Male Wistar rats (n=160) of 300-350 g body weight were used in this study.
1994, 80: 291-300. This model causes diffuse axonal injury and it is able to reproduce the physical and mechanical characteristics of the diffuse TBI in humans.
Rats were placed prone on a bed of specific polyurethane foam inserted in a special container. This foam dissipates the major part of the potential energy (deriving from the mechanical forces) and prevents any rebound of the animal after the impact that could produce spinal damages.
These time points are coincident with the worst biochemical derangement (2 days) or, in the case of a mildly injured brain, with a full metabolic recovery (7 days).
The drug treatment consisted in a subcutaneous injection of 0.5 ml of LMW-DS (Tikomed) and administered at 3 different concentrations (1, 5 and 15 mg/kg body weight), according to the schematic protocol described below.
Sham-operated animals underwent the same procedure of anesthesia but TBI and were used as the control group.
Rats used in this study were divided into 4 groups in order to carry out a study on the efficacy of three different concentrations of LMW-DS at two different times post TBI. As subsequently specified, in each group there were animals subjected to a specific treatment for metabolic analyses and other animals intended to histo-morphological studies, according to the procedures described below.
Rats subjected to sTBI and receiving a single administration of LMW-DS after 30 minutes post-TBI, with sacrifice at 2 days post-TBI. Animals were divided in the following subgroups:
Rats subjected to sTBI and receiving a single administration of LMW-DS after 30 minutes post-TBI, with sacrifice at 7 days post-TBI. Animals were divided in the following subgroups:
Rats (n=12) subjected to sTBI and receiving repeated administrations of the maximal dose of LMW-DS (15 mg/kg b.w.) after 30 minutes, 3 days and 5 days post-TBI, with sacrifice at 7 days post-TBI. Four additional rats were used for the histo-morphological studies. Total rats in this group: n=16
To minimize metabolite loss, an in vivo craniectomy was performed in all animals during anesthesia. The rat skull was carefully removed, the brain was exposed, sharply cut along the sagittal fissure and the two hemispheres were separated. The hemispheres dedicated to biochemical analyses were freeze-clamped by aluminum tongues pre-cooled in liquid nitrogen and then immersed in liquid nitrogen. The freeze-clamping procedure was introduced to accelerate freezing of the tissue, thus minimizing potential metabolite loss.
Tissue homogenization for metabolite analyses was effected as described below. After the wet weight (w.w.) determination, the frozen hemispheres were placed into 7 ml of ice-cold, nitrogen-saturated, precipitating solution (1:10 w/v) composed by CH3CN+10 mM KH2PO4, pH 7.40, (3:1; v:v), and the homogenization was performed using an Ultra-Turrax homogenizer set at 24,000 rpm/min (Janke & Kunkel, Staufen, Germany). After centrifugation at 20,690×g, for 10 min at 4° C., the clear supernatants were saved, pellets were supplemented with an aliquot of 10 mM KH2PO4 and homogenized again as described above and saved overnight at −20° C. in order to obtain a complete recovery of aqueous phase from tissue. A second centrifugation was performed (20,690×g, for 10 min at 4° C.) and supernatants combined with those previously obtained were extracted by vigorous agitation with a double volume of HPLC-grade CHCl3 and centrifuged as above.

[1] = 1 mg/kg b.w. single, 30 min after trauma, 2 days post-TBI
[2] = 1 mg/kg b.w. single, 30 min after trauma, 2 days post-sTBI
[3] = 5 mg/kg b.w. single, 30 min after trauma, 2 days post-TBI
[4] = 5 mg/kg b.w. single, 30 min after trauma, 2 days post-sTBI
[5] = 15 mg/kg b.w. single, 30 min after trauma, 2 days post-sTBI
[6] = rats 2 days post-TBI, single 1 mg/kg b.w. 30 min after trauma
[7] = rats 2 days post-TBI, single 5 mg/kg b.w. 30 min after trauma
[8] = rats 2 days post-TBI, single 15 mg/kg b.w. 30 min after trauma

sodium salt of dextran sulfate [LMW-DS]
NO2 brain concentration [1]: 158.36 ± 19.08 nmol/g w.w.
acetyl-CoA brain concentration [1]: 27.74 ± 3.23 nmol/g w.w.
ascorbic acid brain concentration [1]: 2567.35 ± 147.76 nmol/g w.w.
AMP brain concentration [2]: 62.04 ± 7.46 nmol/g w.w.
CMP brain concentration [2]: 29.39 ± 6.00 nmol/g w.w.
CTP brain concentration [2]: 33.01 ± 7.63 nmol/g w.w.
GDP glucose brain concentration [2]: 65.66 ± 41.61 nmol/g w.w.
GMP brain concentration [2]: 205.06 ± 25.74 nmol/g w.w.
IMP brain concentration [2]: 45.97 ± 8.65 nmol/g w.w.
NAD^+/NADH ratio (adimensional) [2]: 33.91 ± 9.32
UDP-Gal brain concentration [2]: 118.50 ± 9.89 nmol/g w.w.
UDP-GalNac brain concentration [2]: 21.24 ± 3.13 nmol/g w.w.
UDP-Glc brain concentration [2]: 45.14 ± 6.68 nmol/g w.w.
UDP-GlcNac brain concentration [2]: 96.62 ± 8.80 nmol/g w.w.
UMP brain concentration [2]: 148.04 ± 20.45 nmol/g w.w.
UTP brain concentration [2]: 104.07 ± 16.34 nmol/g w.w.
GSH brain concentration [3]: 2067.79 ± 301.54 nmol/g w.w.
NO2 brain concentration [3]: 218.12 ± 26.28 nmol/g w.w.
NO3 brain concentration [3]: 148.41 ± 32.30 nmol/g w.w.
acetyl-CoA brain concentration [3]: 34.85 ± 4.05 nmol/g w.w.
ascorbic acid brain concentration [3]: 2626.68 ± 151.17 nmol/g w.w.
AMP brain concentration [4]: 67.03 ± 11.85 nmol/g w.w.
CTP brain concentration [4]: 37.72 ± 7.63 nmol/g w.w.
GDP brain concentration [4]: 183.27 ± 25.32 nmol/g w.w.
GDP glucose brain concentration [4]: 83.81 ± 37.35 nmol/g w.w.
NAD^+ brain concentration [4]: 376.85 ± 64.15 nmol/g w.w.
NAD^+/NADH ratio (adimensional) [4]: 36.61 ± 6.09
UDP-GalNac brain concentration [4]: 20.75 ± 3.06 nmol/g w.w.
UTP brain concentration [4]: 142.82 ± 22.43 nmol/g w.w.
GSH brain concentration (15 mg/kg b.w. single, 30 min after trauma, 2 days post-TBI): 2418.94 ± 352.75 nmol/g w.w.
ADP-ribose brain concentration [5]: 23.06 ± 4.63 nmol/g w.w.
AMP brain concentration [5]: 66.26 ± 10.74 nmol/g w.w.
CTP brain concentration [5]: 37.53 ± 7.59 nmol/g w.w.
GDP brain concentration [5]: 194.61 ± 26.88 nmol/g w.w.
GDP glucose brain concentration [5]: 84.24 ± 37.54 nmol/g w.w.
GMP brain concentration [5]: 178.88 ± 22.46 nmol/g w.w.
NADPH brain concentration [5]: 8.93 ± 0.74 nmol/g w.w.
NADP^+ brain concentration [5]: 17.75 ± 4.06 nmol/g w.w.
NAD^+ brain concentration [5]: 475.32 ±80.91 nmol/g w.w.
NAD^+/NADH ratio (adimensional) [5]: 44.40 ± 7.67
UDP brain concentration [5]: 80.00 ± 8.20 nmol/g w.w.
UDP-GalNac brain concentration [5]: 22.37 ± 3.30 nmol/g w.w.
UDP-Glc brain concentration [5]: 43.41 ± 6.43 nmol/g w.w.
UDP-GlcNac brain concentration [5]: 108.74 ± 9.90 nmol/g w.w.
UMP brain concentration [5]: 147.53 ± 20.38 nmol/g w.w.
UTP brain concentration [5]: 108.21 ± 16.99 nmol/g w.w.
concentrations of ascorbic acid and reduced glutathione (GSH) (2 days post impact): significantly ameliorated
NAA concentration (FIG. 7) (2 days post impact, 5 or 15 mg/kg b.w.): significantly higher than values found in sTBI rats
concentrations of UTP and ADP (2 days post-sTBI): No effects
nicotinic coenzyme pool (2 days post-sTBI, 15 mg/kg b.w.): significant protection
Acetyl-CoA (2 days post-sTBI, 5 or 15 mg/kg b.w.): partial rescue
high energy phosphates (ATP, GTP, and CTP) (2 days post-sTBI, all three dosages (1, 5, 15 mg/kg)): Significantly higher values
ATP level, decrease versus value of controls (7 days post impact, untreated sTBI 35% decrease): 16%
NAA concentration, decrease versus value of controls (7 days post impact, untreated sTBI 48% lower): 16%
NAD+ level and NAD/NADH ratio (7 days post injury, single and repeat 15 mg/kg b.w.): normalize
NAA (FIG. 11) (7 days post sTBI, increasing single doses or repeat maximal dose): dose dependent increase
CoA-SH and Acetyl-CoA (7 days post-sTBI, 5 or 15 mg/kg b.w. (single and repeat)): Remarkable positive effects
ATP (FIG. 8) (7 days post-sTBI, any dose tested): significant increases
NAD^+/NADH ratio in brain homogenate (repeated 15 mg/kg b.w.): 37.47 ± 9.46
NAD^+/NADH ratio in brain homogenate (single 1 mg/kg b.w.): 33.91 ± 9.32
NAD^+/NADH ratio in brain homogenate (single 5 mg/kg b.w.): 33.90 ± 7.19
ADENOSINE concentration in brain homogenate [6]: 68.91 ± 16.50 nmol/g w.w.
CDP choline concentration in brain homogenate [6]: 8.23 ± 1.22 nmol/g w.w.
CREATININE concentration in brain homogenate [6]: 17.66 ± 3.29 nmol/g w.w.
CYTIDINE concentration in brain homogenate [6]: 13.79 ± 2.49 nmol/g w.w.
CYTOSINE concentration in brain homogenate [6]: 13.47 ± 1.65 nmol/g w.w.
URACIL concentration in brain homogenate [6]: 17.18 ± 3.36 nmol/g w.w.
CYTOSINE concentration in brain homogenate [7]: 13.65 ± 1.67 nmol/g w.w.
URACIL concentration in brain homogenate [7]: 17.83 ± 3.48 nmol/g w.w.
URIDINE concentration in brain homogenate [7]: 117.21 ± 20.64 nmol/g w.w.
XANTHINE concentration in brain homogenate [7]: 6.71 ± 0.70 nmol/g w.w.
ADENOSINE concentration in brain homogenate [8]: 53.25 ± 12.75 nmol/g w.w.
CDP choline concentration in brain homogenate [8]: 7.07 ± 1.05 nmol/g w.w.
CYTIDINE concentration in brain homogenate [8]: 11.46 ± 2.07 nmol/g w.w.
CYTOSINE concentration in brain homogenate [8]: 13.57 ± 1.66 nmol/g w.w.
